Reference: patent US5210193A, “Piperazine derivatives” (American Cyanamid Company, priority 1990, dated 1993)

Assays:
Assay in all cases: in vitro antibacterial MIC, agar plate dilution
Format in all cases: cell-based
[1] = test system: Enterobacter cloacae VGH 84-37; conditions: Enterobacter cloacae, VGH8437, 18 h, 35° C., read-out: MIC
Method in brief: (§1)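 Read-out is visible growth inhibition on Mueller-Hinton agar dilution plates incubated 18 hours at 35° C after inoculation of ~10^4 CFU (Steers device), with MIC reported in mcg/ml.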

[2] = test system: Staphylococcus aureus VGH 84-45; conditions: Staphylococcus aureus, VGH8445, 18 h, 35° C., read-out: MIC
Method in brief: as §1

[3] = test system: Proteus rettgeri CMC 84-41; conditions: Providencia rettgeri, CMC8441, 18 h, 35° C., read-out: MIC
Method in brief: as §1

[4] = test system: Staphylococcus epidermidis IO 83-58; conditions: IO8358, 18 hours, 35° C., read-out: MIC
Method in brief: as §1

[5] = test system: Staphylococcus aureus ATTC 29213; conditions: Staphylococcus aureus, ATTC29213, 18 h, 35° C., read-out: MIC
Method in brief: as §1

[6] = test system: Escherichia coli PRNT 311; conditions: PRNT311, 18 hours, 35° C., read-out: MIC
Method in brief: as §1

[7] = test system: Enterobacter cloacae K 84-10; conditions: Enterobacter cloacae, K8410, 18 h, 35° C., read-out: MIC
Method in brief: as §1

[8] = test system: Pseudomonas aeruginosa VGH 84-4; conditions: Pseudomonas aeruginosa, VGH844, 18 h, 35° C., read-out: MIC
Method in brief: as §1

[9] = test system: Escherichia coli CMC 84-11; conditions: Escherichia coli, CMC8411, 18 h, 35° C., read-out: MIC
Method in brief: as §1

[10] = test system: Escherichia coli CMC 84-16; conditions: Escherichia coli, CMC8416, 18 h, 35° C., read-out: MIC
Method in brief: as §1

[11] = test system: Morganella morganii VGH 84-11; conditions: VGH8411, 18 hours, 35° C., read-out: MIC
Method in brief: as §1

[12] = test system: Staphylococcus aureus CMC 83-127; conditions: Staphylococcus aureus, CMC83127, 18 h, 35° C., read-out: MIC
Method in brief: as §1

[13] = test system: Acinetobacter calcoaceticus MOR 84-43; conditions: MOR8443, 18 hours, 35° C., read-out: MIC
Method in brief: as §1

[14] = test system: Klebsiella oxytoca MOR 84-28; conditions: MOR8428, 18 hours, 35° C.
Method in brief: as §1

[15] = test system: Staphylococcus aureus VGH 84-46; conditions: Staphylococcus aureus, VGH8446, 18 h, 35° C., read-out: MIC
Method in brief: as §1

[16] = test system: Escherichia coli NAR 311; conditions: NAR311, 18 hours, 35° C., read-out: MIC
Method in brief: as §1

[17] = test system: Streptococcus faecalis VGH 84-65; conditions: Enterococcus faecalis, VGH8465, 18 h, 35° C., read-out: MIC
Method in brief: as §1

[18] = test system: Staphylococcus aureus ATCC 25913; conditions: ATCC25913, 18 hours, 35° C.
Method in brief: as §1

[19] = test system: Staphylococcus epidermidis VGH 84-40; conditions: VGH8440, 18 hours, 35° C., read-out: MIC
Method in brief: as §1

[20] = test system: Streptococcus faecalis ATTC 29212; conditions: Enterococcus faecalis, ATTC29212, 18 hours, 35° C., read-out: MIC
Method in brief: as §1

[21] = test system: Staphylococcus aureus Smith; conditions: Staphylococcus aureus, 18 h, 35° C., read-out: MIC
Method in brief: as §1

[22] = test system: Enterobacter aerogenes VGH 84-36; conditions: Klebsiella aerogenes, VGH8436, 18 hours, 35° C., read-out: MIC
Method in brief: as §1

[23] = test system: Staphylococcus Spp saprophiticus VGH 84-50; conditions: 18 hours, 35° C., read-out: MIC
Method in brief: as §1

[24] = test system: Serratia marcescens K 84-18; conditions: Serratia marcescens, K8418, 18 h, 35° C., read-out: MIC
Method in brief: as §1

[25] = test system: Staphylococcus aureus CMC 83-128; conditions: CMC83128, 18 hours, 35° C., read-out: MIC
Method in brief: as §1

[26] = test system: Staphylococcus epidermidis CMC 83-135; conditions: CMC83135, 18 hours, 35° C., read-out: MIC
Method in brief: as §1

[27] = test system: Morganella morganii CMC 84-37; conditions: Morganella morganii, CMC8437, 18 h, 35° C., read-out: MIC
Method in brief: as §1

[28] = test system: Klebsiella pneumoniae AD; conditions: Klebsiella pneumoniae, 18 h, 35° C., read-out: MIC
Method in brief: as §1

[29] = test system: Serratia marcescens F 0-35; conditions: Serratia marcescens, F035, 18 h, 35° C., read-out: MIC
Method in brief: as §1

[30] = test system: Klebsiella pneumoniae MOR 84-4; conditions: Klebsiella pneumoniae, MOR844, 18 h, 35° C., read-out: MIC
Method in brief: as §1

[31] = test system: Escherichia coli ATCC 25922; conditions: Escherichia coli, ATCC25922, 18 h, 35° C., read-out: MIC
Method in brief: as §1

[32] = test system: Pseudomonas aeruginosa LL-1244; conditions: Pseudomonas aeruginosa, LL1244, 18 h, 35° C., read-out: MIC
Method in brief: as §1

Measured: MIC

CCn1cc(C(=O)O)c(=O)c2cc(F)c(N3CCNC(c4ccsc4)C3)cc21 (centres unmarked) [Example 30]
1 µg/mL: [29]
32 µg/mL: [32]
2 µg/mL: [23]
4 µg/mL: [8] | [13] | [16] | [17] | [20]
0.25 µg/mL: [2] | [3] | [10] | [15] | [18] | [19] | [26] | [27] | [30]
0.12 µg/mL: [1] | [9] | [11] | [12] | [21] | [28] | [31]
0.5 µg/mL: [4] | [5] | [6] | [7] | [14] | [22] | [24] | [25]
